Drawing on PubChem BioAssay (NCI), this text covers TGI for 17 compounds.

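Interpolation was linear, between the two tested concentrations surrounding the appropriate level; five concentrations were tested over 48 hours in 96-well plates. TGI marks complete inhibition of growth.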

One experiment concerns MDA-MB-231 breast. Nature of the experiment: DTP human tumour cell line panel, 48 h.
Consider `CC(C)=C1C(=O)C[C@]2(C)C[C@H]3/C(=C(/C)CCC12)CC[C@@]3(C)O` (stereo not given in full), for which the total growth inhibition concentration (TGI) is more than 50 µM.

For the compound `CC(=O)Nc1ccc(-c2nc3ccccc3s2)cc1`, the total growth inhibition concentration (TGI) stood at 96.1 µM. In other words, the double-digit micromolar range.

Regarding `O=C(NCCCN(CCCCN(CCCNC(=O)C(F)(F)F)CCCc1ccccc1)CCCc1ccccc1)C(F)(F)F`, the concentration for total growth inhibition (TGI) amounted to 3.11 µM.

In turn, `CCOP(=O)(O)C(C)(C)NC` had a total growth inhibition concentration (TGI) of more than 100 µM.

As for `CC(C)C[C@H]1[C@@H](OCc2ccccc2)COS(=O)N1[C@H](C)c1ccccc1` (stereo not given in full), the concentration for total growth inhibition (TGI) was determined as 65.2 µM.

`CC1(C)OC2C(O)CN3CCS[C@H]3C2O1` (stereo not given in full): the total growth inhibition concentration (TGI) is more than 100 µM.

`COC(=O)C1C=CN(N(C)C)C2=C1C(=O)c1c(O)cccc1C2=O` (stereo not given) showed a total growth inhibition concentration (TGI) of 5.79 µM.

Another experiment deals with MDA-N. Description: DTP human tumour cell line panel, 48 h.
The compound `O=C(NC(CO)Cc1ccc(Oc2cc(CC(CO)NC(=O)OCc3ccccc3)ccc2OC(=O)OCc2ccccc2)cc1)OCc1ccccc1` (stereo not given) displayed a concentration for total growth inhibition (TGI) of 50.3 µM.

Compound `CC(=O)Nc1ccc2cc(C)c(=O)[nH]c2n1` showed a TGI of more than 100 µM.

The compound `CCc1nc2ccc(N=NN(C)C)cc2[nH]1` displayed a TGI of more than 100 µM.

For the compound `CN(CCN(C)C(=S)NN)C(=S)NN`, the TGI was more than 100 µM.

`O=C(NCCCN(CCCCN(CCCNC(=O)C(F)(F)F)CCCc1ccccc1)CCCc1ccccc1)C(F)(F)F` displayed a TGI of 3.04 µM.

On to `CCOP(=O)(O)C(C)(C)NC`, for which the TGI was more than 100 µM.

For `CC(C)C[C@H]1[C@@H](OCc2ccccc2)COS(=O)N1[C@H](C)c1ccccc1` (stereo not given in full), the TGI is more than 100 µM.

In a further experiment the test system is OVCAR-3 ovarian. Nature of the experiment: DTP human tumour cell line panel, 48 h.
The compound `COc1cc2c3c(c4cc(OC)c(OC)cc4c2cc1OC)C(=O)C1CCC(=O)N1C3` (stereo not given) displayed a TGI of more than 100 µM.

Regarding `O=C(NC(CO)Cc1ccc(Oc2cc(CC(CO)NC(=O)OCc3ccccc3)ccc2OC(=O)OCc2ccccc2)cc1)OCc1ccccc1` (stereo not given), the TGI was found to be 45 µM.

`CC(C)(C)c1cc(C(=O)/C=C/C=C/c2ccccc2)cc(C(C)(C)C)c1O`: the TGI was more than 94.1 µM.

On to `O=C(O)CCN(CCC(=O)O)c1ccc(/C=C2\SC(=S)NC2=O)cc1`, for which the TGI is more than 100 µM.

As to `CCc1nc2ccc(N=NN(C)C)cc2[nH]1`, the total growth inhibition concentration (TGI) is more than 100 µM.

For the compound `Nc1nc2c(ncn2Cc2ccc(CO)cc2)c(=O)[nH]1`, the concentration for total growth inhibition (TGI) was more than 100 µM.

In the case of `CN(CCN(C)C(=S)NN)C(=S)NN`, the total growth inhibition concentration (TGI) was more than 100 µM.

Consider `O=C(NS(=O)(=O)OCC(Cl)(Cl)Cl)SCCC(F)(F)C(F)(F)C(F)(F)C(F)(F)C(F)(F)C(F)(F)F`, for which the total growth inhibition concentration (TGI) came out at 48.3 µM.

In the case of `CC(C)=C1C(=O)C[C@]2(C)C[C@H]3/C(=C(/C)CCC12)CC[C@@]3(C)O` (stereo not given in full), the concentration for total growth inhibition (TGI) was more than 50 µM.

`CCOP(=O)(O)C(C)(C)NC` registered a TGI of more than 100 µM.

Regarding `Cc1cccc(C(C)C)c1NC(=O)CC1Sc2ccccc2NC1=O` (stereo not given), the total growth inhibition concentration (TGI) was more than 100 µM.

As to `CC(C)C[C@H]1[C@@H](OCc2ccccc2)COS(=O)N1[C@H](C)c1ccccc1` (stereo not given in full), the total growth inhibition concentration (TGI) stood at 26 µM. In other words, the double-digit micromolar range.

Take `CC1(C)OC2C(O)CN3CCS[C@H]3C2O1` (stereo not given in full): the TGI was more than 100 µM.

For `COC(=O)C1C=CN(N(C)C)C2=C1C(=O)c1c(O)cccc1C2=O` (stereo not given), the concentration for total growth inhibition (TGI) was 5.82 µM.

Another experiment deals with PC-3 prostate. Description: DTP human tumour cell line panel, 48 h.
For `COc1cc2c3c(c4cc(OC)c(OC)cc4c2cc1OC)C(=O)C1CCC(=O)N1C3` (stereo not given), the concentration for total growth inhibition (TGI) is more than 100 µM.

In turn, `O=C(NC(CO)Cc1ccc(Oc2cc(CC(CO)NC(=O)OCc3ccccc3)ccc2OC(=O)OCc2ccccc2)cc1)OCc1ccccc1` (stereo not given) yielded a total growth inhibition concentration (TGI) of 32.7 µM.

`CC(C)(C)c1cc(C(=O)/C=C/C=C/c2ccccc2)cc(C(C)(C)C)c1O` yielded a TGI of more than 79.9 µM.

The compound `O=C(O)CCN(CCC(=O)O)c1ccc(/C=C2\SC(=S)NC2=O)cc1` came in with a concentration for total growth inhibition (TGI) of more than 100 µM.

`CC(=O)Nc1ccc2cc(C)c(=O)[nH]c2n1` gave a total growth inhibition concentration (TGI) of more than 100 µM.

As for `CCc1nc2ccc(N=NN(C)C)cc2[nH]1`, the TGI is more than 100 µM.

Take `Nc1nc2c(ncn2Cc2ccc(CO)cc2)c(=O)[nH]1`: the total growth inhibition concentration (TGI) is more than 100 µM.

Take `CN(CCN(C)C(=S)NN)C(=S)NN`: the TGI was more than 100 µM.

As to `O=C(NS(=O)(=O)OCC(Cl)(Cl)Cl)SCCC(F)(F)C(F)(F)C(F)(F)C(F)(F)C(F)(F)C(F)(F)F`, the concentration for total growth inhibition (TGI) turned out to be 32.4 µM. In other words, the double-digit micromolar range.

As for `CC(C)=C1C(=O)C[C@]2(C)C[C@H]3/C(=C(/C)CCC12)CC[C@@]3(C)O` (stereo not given in full), the TGI was more than 50 µM.

As for `CC(=O)Nc1ccc(-c2nc3ccccc3s2)cc1`, the TGI was more than 100 µM.

With `CCOP(=O)(O)C(C)(C)NC`, the TGI was more than 100 µM.

The compound `CC(C)C[C@H]1[C@@H](OCc2ccccc2)COS(=O)N1[C@H](C)c1ccccc1` (stereo not given in full) registered a TGI of more than 100 µM.

The compound `CC1(C)OC2C(O)CN3CCS[C@H]3C2O1` (stereo not given in full) gave a TGI of more than 100 µM.

As for `COC(=O)C1C=CN(N(C)C)C2=C1C(=O)c1c(O)cccc1C2=O` (stereo not given), the concentration for total growth inhibition (TGI) was more than 100 µM.

In a further experiment the test system is RPMI-8226 leukemia. Nature of the experiment: DTP human tumour cell line panel, 48 h.
`COc1cc2c3c(c4cc(OC)c(OC)cc4c2cc1OC)C(=O)C1CCC(=O)N1C3` (stereo not given): the TGI was more than 100 µM.

In the case of `O=C(NC(CO)Cc1ccc(Oc2cc(CC(CO)NC(=O)OCc3ccccc3)ccc2OC(=O)OCc2ccccc2)cc1)OCc1ccccc1` (stereo not given), the TGI was found to be 31 µM.

`CC(C)(C)c1cc(C(=O)/C=C/C=C/c2ccccc2)cc(C(C)(C)C)c1O` yielded a total growth inhibition concentration (TGI) of 29.9 µM.

In turn, `O=C(O)CCN(CCC(=O)O)c1ccc(/C=C2\SC(=S)NC2=O)cc1` had a total growth inhibition concentration (TGI) of more than 100 µM.

`CC(=O)Nc1ccc2cc(C)c(=O)[nH]c2n1`: the concentration for total growth inhibition (TGI) is more than 100 µM.

Turning to `CCc1nc2ccc(N=NN(C)C)cc2[nH]1`, the TGI is more than 100 µM.

In turn, `Nc1nc2c(ncn2Cc2ccc(CO)cc2)c(=O)[nH]1` had a TGI of more than 100 µM.

The compound `CN(CCN(C)C(=S)NN)C(=S)NN` registered a TGI of more than 100 µM.

`O=C(NS(=O)(=O)OCC(Cl)(Cl)Cl)SCCC(F)(F)C(F)(F)C(F)(F)C(F)(F)C(F)(F)C(F)(F)F` showed a concentration for total growth inhibition (TGI) of 40.5 µM.

As to `CC(C)=C1C(=O)C[C@]2(C)C[C@H]3/C(=C(/C)CCC12)CC[C@@]3(C)O` (stereo not given in full), the TGI is more than 50 µM.

`CC(=O)Nc1ccc(-c2nc3ccccc3s2)cc1` came in with a TGI of more than 100 µM.

Compound `O=C(NCCCN(CCCCN(CCCNC(=O)C(F)(F)F)CCCc1ccccc1)CCCc1ccccc1)C(F)(F)F` registered a total growth inhibition concentration (TGI) of 7.97 µM.

Compound `CCOP(=O)(O)C(C)(C)NC` yielded a TGI of more than 100 µM.

Regarding `Cc1cccc(C(C)C)c1NC(=O)CC1Sc2ccccc2NC1=O` (stereo not given), the TGI was more than 100 µM.

`CC(C)C[C@H]1[C@@H](OCc2ccccc2)COS(=O)N1[C@H](C)c1ccccc1` (stereo not given in full) showed a concentration for total growth inhibition (TGI) of 58.4 µM.

As for `CC1(C)OC2C(O)CN3CCS[C@H]3C2O1` (stereo not given in full), the concentration for total growth inhibition (TGI) was more than 100 µM.

The compound `COC(=O)C1C=CN(N(C)C)C2=C1C(=O)c1c(O)cccc1C2=O` (stereo not given) had a TGI of 5.97 µM.

The test system of the next experiment is SK-MEL-2 melanoma. Description: DTP human tumour cell line panel, 48 h.
Compound `COc1cc2c3c(c4cc(OC)c(OC)cc4c2cc1OC)C(=O)C1CCC(=O)N1C3` (stereo not given) had a concentration for total growth inhibition (TGI) of more than 100 µM.

Regarding `O=C(NC(CO)Cc1ccc(Oc2cc(CC(CO)NC(=O)OCc3ccccc3)ccc2OC(=O)OCc2ccccc2)cc1)OCc1ccccc1` (stereo not given), the TGI was determined as 58.3 µM. That is a double-digit micromolar value.

Take `CC(C)(C)c1cc(C(=O)/C=C/C=C/c2ccccc2)cc(C(C)(C)C)c1O`: the TGI came out at 34.5 µM.

Compound `O=C(O)CCN(CCC(=O)O)c1ccc(/C=C2\SC(=S)NC2=O)cc1` yielded a TGI of more than 100 µM.

The compound `CC(=O)Nc1ccc2cc(C)c(=O)[nH]c2n1` gave a total growth inhibition concentration (TGI) of more than 100 µM.

The compound `CCc1nc2ccc(N=NN(C)C)cc2[nH]1` showed a total growth inhibition concentration (TGI) of more than 100 µM.

In the case of `Nc1nc2c(ncn2Cc2ccc(CO)cc2)c(=O)[nH]1`, the TGI was more than 100 µM.

Consider `CN(CCN(C)C(=S)NN)C(=S)NN`, for which the TGI is more than 100 µM.

The compound `O=C(NS(=O)(=O)OCC(Cl)(Cl)Cl)SCCC(F)(F)C(F)(F)C(F)(F)C(F)(F)C(F)(F)C(F)(F)F` returned a TGI of 66.8 µM.

Turning to `CC(C)=C1C(=O)C[C@]2(C)C[C@H]3/C(=C(/C)CCC12)CC[C@@]3(C)O` (stereo not given in full), the total growth inhibition concentration (TGI) is more than 50 µM.
